Legend:
[1] = test system: Vero cells; experiment: Cytotoxicity against Vero cells; format: cell-based
[2] = Metabolic stability in mouse liver microsomes; format: in vitro ADME; details: for Qp,h (percentage ratio of predicted clearance over plasma flow): well-stirred model; for half-life: mouse, liver microsomes

| SMILES | selectivity index (SI) ([1]; IC50 Vero cells over MICMABA, repeat testing) | toxicity toward Vero cells from the HTS studies ([1]; initial HTS study, before repeat testing) [µm] | Qp,h (percentage ratio of predicted clearance over plasma flow) ([2]; mouse liver microsomes) [%] | half-life [2] [min] | Half life ([2]; mouse liver microsomes, 30 min incubation) |
| --- | --- | --- | --- | --- | --- |
| Cc1c(Cc2ccc(Cl)cc2)c(=O)n2c([nH]c3ccccc32)c1C#N [3a, 2-(4-Chlorobenzyl)-3-methyl-1-oxo-1H,5H-pyrido[1,2-a]benzimidazole-4-carbonitrile] | 16 | > 100 | 95.4 | 6.5 |  |
| Cc1c(Cc2cccc(C(F)(F)F)c2)c(=O)n2c([nH]c3ccccc32)c1C#N [3d, 3-Methyl-1-oxo-2-[3-(trifluoromethyl)benzyl]-1H,5H-pyrido[1,2-a]-benzimidazole-4-carbonitrile] |  |  | 90.0 | 15 |  |
| COc1cccc(Cc2c(C)c(C#N)c3[nH]c4ccccc4n3c2=O)c1 [3e, 3-Methyl-2-(3-methoxybenzyl)-1-oxo-1H,5H-pyrido[1,2-a]benzimidazole-4-carbonitrile] |  |  | 93.5 | 9.43 |  |
| Cc1c(Cc2ccccc2)c(=O)n2c([nH]c3ccccc32)c1C#N [3v, 2-Benzyl-3-methyl-1-oxo-1H,5H-pyrido[1,2-a]benzimidazole-4-carbonitrile] |  |  | 94.5 | 7.82 |  |
| Cc1c(C)c(=O)n2c([nH]c3ccccc32)c1C#N [3w, 2,3-Dimethyl-1-oxo-1H,5H-pyrido[1,2-a]benzimidazole-4-carbonitrile] |  |  | 72.5 | 51.2 | most stable member of the set of compounds tested |

— article PMC4575222 (ChemMedChem, 2011)
